This note sets out measurements from EP0133550B1, “Process for producing arphamenine in high yield” (MICROBIAL CHEMISTRY RESEARCH FOUNDATION, priority 1983, dated 1985).

The target of this experiment is T1, aminopeptidase B (Rattus norvegicus, UniProt O09175).
T1 sequence (O09175 1-650): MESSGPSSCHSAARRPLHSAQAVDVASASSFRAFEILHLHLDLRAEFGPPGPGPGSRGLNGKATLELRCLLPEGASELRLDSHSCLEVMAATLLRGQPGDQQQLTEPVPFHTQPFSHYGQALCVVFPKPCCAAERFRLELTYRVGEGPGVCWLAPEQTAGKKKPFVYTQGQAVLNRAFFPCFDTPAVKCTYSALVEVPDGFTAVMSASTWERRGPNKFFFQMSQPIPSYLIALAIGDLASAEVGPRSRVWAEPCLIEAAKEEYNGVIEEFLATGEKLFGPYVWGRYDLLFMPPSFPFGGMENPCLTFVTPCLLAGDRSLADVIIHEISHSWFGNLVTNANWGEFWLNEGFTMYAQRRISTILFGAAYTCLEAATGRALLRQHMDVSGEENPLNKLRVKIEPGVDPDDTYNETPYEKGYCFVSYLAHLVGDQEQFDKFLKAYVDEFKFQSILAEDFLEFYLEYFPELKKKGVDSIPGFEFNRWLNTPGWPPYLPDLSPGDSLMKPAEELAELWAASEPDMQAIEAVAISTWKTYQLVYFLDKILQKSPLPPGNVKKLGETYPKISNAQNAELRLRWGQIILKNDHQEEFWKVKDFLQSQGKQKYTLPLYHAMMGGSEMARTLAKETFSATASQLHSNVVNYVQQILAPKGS
The experiment in a line: Inhibition of aminopeptidase B (improved method of Hoppusu et al., arginine-ß-naphthylamide substrate, absorbance at 525 nm). It counts as biochemical. Particulars: 0.002 M arginine-ß-naphthylamide, pH 7.0, 30 minutes at 37°C; read-out: IC50 (concentration which inhibited 50% of aminopeptidase B activity) (converted).

Procedure: The amount (potency) of arphamenine was determined by an improved method based on the method of Hoppusu et al. (V.K. HOPPUSU, K.K. MAKINEN & G.G. GLENNER, Archieves of Biochemistry and Biophysics 114, 557,1966). In detail, 0.5 ml of 0.1 M tris-hydrochloric acid buffer solution (pH 7.0) and 0.25 ml of a solution containing the specimen were added to 0.25 ml of 0.002 M arginine-ß-naphthylamide. The resulting mixed solution was heated for 3 minutes at 37°C. To the heated solution was added 5 pl of a solution of aminopeptidase B that had been purified by the use of DEAE-cellulose according to the enzyme- purification technique of Hoppusu et al.
The mixture was reacted for 30 minutes at 37°C, followed by adding to the reaction mixture 1 ml of 1.0 M acetic acid buffer solution (pH 4.2) containing Fast Garnet GBC@ (0-aminoazotoluene diazonium salt) in a concentration of 1 mg/ml and the surfactant Tween 20@ in a concentration of 10%.
The resulting mixture was allowed to stand for 15 minutes at room temperature, and measured for adsorbance (a) at 525 nm. Simultaneously, a blank absorbance (b) was obtained using an arphamenine- free buffer solution only. Percent inhibition of aminopeptidase B was calculated from the equation [(b-a)/b] x 100.

As for `N=C(N)NCCCC(N)C(=O)CC(Cc1ccc(O)cc1)C(=O)O` (stereo not shown) [arphamenine B], the IC50 was 5.95 nM.
